Where two headings read alike, the source gives them in different places.
Columns and labels:
[1] = molecular target: phosphodiesterase fraction III; experiment: Inhibition of phosphodiesterase fraction III activity; format: biochemical; settings: cyclic AMP substrate 0.01-1.0 micromolar, pH 7.4, fraction III enzyme from canine heart
[2] = test system: renal vasculature; experiment: Renal vasodilating activity in anesthetized dogs; format: in vivo, adult mongrel dogs; settings: Canis lupus familiaris
Method: The following procedure is a variation of the assay described in that report.
Adult mongrel dogs were anesthetized and surgically prepared for electromagnetic measurement of renal artery blood flow. A carotid artery was cannulated for measuring arterial blood pressure and drugs were administered intravenously or intraarterially (via the renal artery). Heart rate was monitored with a cardiotachometer. Renal vascular resistance was calcualted as the ratio of mean arterial blood pressure to renal artery blood flow. Dopamine was infused intravenously at 3 μg/kg/min for ten minutes (at an infusion rate of about 1 ml/min) to determine responsiveness of each dog to renal dopamine receptor stimulation. Cumulative dose-response data were obtained by infusing a compound of this invention at progressively increasing (usually three-fold) infusion rates, each dose being infused for five minutes. The maximum percent change from pre-drug control in renal artery blood flow (or in renal vascular resistance) was determined for each infusion dose.

[3] = test system: cardiac muscle; experiment: Acute in vivo cardiotonic activity in anesthetized dogs; design: species or system adult mongrel dogs; settings: anesthetized dog, relative to control
Method: The acute in vivo cardiotonic activity of compounds prepared according to the present invention was determined according to a modification of the procedure described by Alousi et al., Circ. Res., 45, 666 (1979).
In particular, adult mongrel dogs were anesthetized with sodium pentobarbital and were artificially respired. Arterial pressure was monitored via a femoral artery, and the pulse pressure was used to trigger a cardiotachometer for heart rate. Left ventricular pressure was determined with a Millar catheter, and dP/dT (the change in ventricular pressure with time) was derived. Cardiac output was determined by measuring ascending aortic blood flow with an electromagnetic flow probe, and myocardial contractile foorce was measured with a Walton Brodie strain gauge sutured to the right ventricle. Lead II EKG was also recorded.
A standard dose (10 μg/kg/min) of dopamine was administered to assess myocardial responsiveness.
Compounds of the invention were administered by intravenous infusion and the effects on cardiovascular parameters were determined.
Dose related effects of the test compound on heart rate (HR), maximum change in left ventricular pressure with time (dP/dT), percent change in cardiac force (CF) and the change in mean arterial blood pressure (MABP) were compared to pretreatment control values and expressed as a percent change.

[4] = iv, read-out: RVR, percent change in renal vascular resistance
[5] = anesthetized dog, dose 6.2 mpk iv, relative to control, read-out: HR, percent change in heart rate
[6] = anesthetized dog, dose 6.2 mpk iv, relative to control, read-out: MABP, percent change in mean arterial blood pressure
[7] = anesthetized dog, dose 6.2 mpk iv, relative to control, read-out: RBF, percent change in renal blood flow
[8] = total dose 1.875 mpk iv infusion
[9] = iv, read-out: HR, percent change in heart rate
[10] = anesthetized dog, dose 1.2 mpk iv, relative to control, read-out: HR, percent change in heart rate
[11] = anesthetized dog, dose 1.2 mpk iv, relative to control, read-out: MABP, percent change in mean arterial blood pressure
[12] = anesthetized dog, dose 1.2 mpk iv, relative to control, read-out: RBF, percent change in renal blood flow
[13] = anesthetized dog, dose 1.2 mpk iv, relative to control, read-out: RVR, percent change in renal vascular resistance
[14] = total dose 1.938 mpk iv infusion

Structure (SMILES): CNc1nc(C)c2cc(OC)c(OC)cc2c1[N+](=O)[O-] [Cmpd 2]
- IC50 [1]: 265 µM

Structure (SMILES): CCCCNc1nc(C)c2cc(OC)c(OC)cc2c1[N+](=O)[O-] [Cmpd 3, 3-(n-Butylamino)-6,7-dimethoxy-1-methyl-4-nitroisoquinoline]
- IC50 [1]: 250 µM

Structure (SMILES): COc1cc2c(C)nc(NCc3ccccc3)c([N+](=O)[O-])c2cc1OC [Cmpd 4]
- change in vivo at 6.2 mg/kg [2, 4]: -14%
- change in vivo at 6.2 mg/kg [2, 5]: -15%
- change in vivo at 6.2 mg/kg [2, 6]: -6%
- change in vivo at 6.2 mg/kg [2, 7]: 9%

Structure (SMILES): CCN(CC)CCNc1nc(C)c2cc(OC)c(OC)cc2c1[N+](=O)[O-] [Cmpd 6]
- CF, percent change in cardiac force [3, 8]: 40 percent change
- HR, percent change in heart rate [3, 8]: -6 percent change
- MABP, percent change in mean arterial blood pressure [3, 8]: 4 percent change
- dP/dt, maximum percent change in left ventricular pressure with time [3, 8]: 52 percent change

Structure (SMILES): COc1cc2c(C)nc(NCCN3CCN(c4ccccc4OC)CC3)c([N+](=O)[O-])c2cc1OC [Cmpd 8]
- change in vivo at 0.3 mg/kg [2, 9]: -6%
- change in vivo at 0.3 mg/kg ([2]; anesthetized dog, dose 0.3 mpk iv, relative to control, read-out: MABP, percent change in mean arterial blood pressure): -20%
- change in vivo at 0.3 mg/kg ([2]; anesthetized dog, dose 0.3 mpk iv, relative to control, read-out: RBF, percent change in renal blood flow): 10%
- change in vivo at 0.3 mg/kg ([2]; anesthetized dog, dose 0.3 mpk iv, relative to control, read-out: RVR, percent change in renal vascular resistance): -27%

Structure (SMILES): COc1cc2c(C)nc(NC3CCN(Cc4ccccc4)CC3)c([N+](=O)[O-])c2cc1OC [Cmpd 11]
- IC50 [1]: 120 µM
- change in vivo at 6.2 mg/kg [2, 4]: -28%
- change in vivo at 6.2 mg/kg [2, 5]: -16%
- change in vivo at 6.2 mg/kg [2, 6]: -13%
- change in vivo at 6.2 mg/kg [2, 7]: 28%

Structure (SMILES): COc1cc2c(C)nc(Nc3ccccc3)c([N+](=O)[O-])c2cc1OC [Cmpd 12]
- IC50 [1]: 250 µM
- change in vivo at 6.2 mg/kg [2, 4]: -32%
- change in vivo at 6.2 mg/kg [2, 5]: 2%
- change in vivo at 6.2 mg/kg [2, 6]: -3%
- change in vivo at 6.2 mg/kg [2, 7]: 42%

Structure (SMILES): COc1cc2c(C)nc(N(C)C)c([N+](=O)[O-])c2cc1OC [Cmpd 13, 6,7-Dimethoxy-1-methyl-3-(N,N-dimethyl)amino-4-nitroisoquinoline]
- IC50 [1]: 10 µM
- change in vivo at 1.2 mg/kg [2, 10]: 17%
- change in vivo at 1.2 mg/kg [2, 11]: 16%
- change in vivo at 1.2 mg/kg [2, 12]: 60%
- change in vivo at 1.2 mg/kg [2, 13]: -23%

Structure (SMILES): CCN(C)c1nc(C)c2cc(OC)c(OC)cc2c1[N+](=O)[O-] [Cmpd 14]
- IC50 [1]: 25 µM
- CF, percent change in cardiac force [3, 14]: 21 percent change
- HR, percent change in heart rate [3, 14]: 8 percent change
- MABP, percent change in mean arterial blood pressure [3, 14]: 6 percent change
- dP/dt, maximum percent change in left ventricular pressure with time [3, 14]: 20 percent change

Structure (SMILES): CCN(CC)c1nc(C)c2cc(OC)c(OC)cc2c1[N+](=O)[O-] [Cmpd 15]
- change in vivo at 6.2 mg/kg [2, 5]: 4%
- change in vivo at 6.2 mg/kg [2, 6]: 0%
- change in vivo at 6.2 mg/kg [2, 7]: 8%
- change in vivo at 6.2 mg/kg ([2]; anesthetized dog, dose 6.2 mpk iv, relative to control, read-out: RVR, percent change in renal vascular resistance): -8%

Structure (SMILES): CCN(CCN(C)C)c1nc(C)c2cc(OC)c(OC)cc2c1[N+](=O)[O-] [Cmpd 16]
- IC50 [1]: 300 µM

Structure (SMILES): COc1cc2c(C)nc(N3CCN(c4ccccc4)CC3)c([N+](=O)[O-])c2cc1OC [Cmpd 19]
- IC50 [1]: 150 µM
- change in vivo at 6.2 mg/kg [2, 4]: -18%
- change in vivo at 6.2 mg/kg [2, 5]: -5%
- change in vivo at 6.2 mg/kg [2, 6]: 6%
- change in vivo at 6.2 mg/kg [2, 7]: 30%

Structure (SMILES): COc1cc2c(C)nc(N(C)c3ccccc3)c([N+](=O)[O-])c2cc1OC [Cmpd 21]
- IC50 [1]: 220 µM

Structure (SMILES): CCCCSc1nc(C)c2cc(OC)c(OC)cc2c1[N+](=O)[O-] [Cmpd 23, 3-(n-Butylthio)-6,7-dimethoxy-1-methyl-4-nitroisoquinoline]
- IC50 [1]: 280 µM
- change in vivo at 6.2 mg/kg ([2]; iv, read-out: MABP, percent change in mean arterial blood pressure): -1%
- change in vivo at 6.2 mg/kg [2, 4]: -15%
- change in vivo at 6.2 mg/kg [2, 5]: 4%
- change in vivo at 6.2 mg/kg [2, 7]: 16%

Structure (SMILES): COc1cc2c(C)nc(Nc3ccccc3)c(N)c2cc1OC [Cmpd 25, 4-amino-6,7-dimethoxy-1-methyl-3-[(N-phenyl)amino]isoquinoline]
- IC50 [1]: 68 µM

Structure (SMILES): COc1cc2c(C)nc(N(C)C)c(N)c2cc1OC [Cmpd 26, 4-Amino-6,7-dimethoxy-3-(N,N-dimethyl)amino-1-methylisoquinoline]
- IC50 [1]: 14 µM

Structure (SMILES): CCCCNC(=O)Nc1c(Nc2ccccc2)nc(C)c2cc(OC)c(OC)cc12 [Cmpd 27]
- change in vivo at 1.2 mg/kg [2, 9]: -6%
- change in vivo at 1.2 mg/kg [2, 11]: 8%
- change in vivo at 1.2 mg/kg [2, 12]: 7%
- change in vivo at 1.2 mg/kg [2, 13]: 1%

Structure (SMILES): CCCCNC(=O)Nc1c(N(C)C)nc(C)c2cc(OC)c(OC)cc12 [Cmpd 28]
- IC50 [1]: 300 µM
- CF, percent change in cardiac force [3, 8]: 20 percent change
- HR, percent change in heart rate [3, 8]: 2 percent change
- MABP, percent change in mean arterial blood pressure [3, 8]: 2 percent change
- dP/dt, maximum percent change in left ventricular pressure with time [3, 8]: 16 percent change

Structure (SMILES): C=CCNC(=O)Nc1c(N(C)C)nc(C)c2cc(OC)c(OC)cc12 [Cmpd 30]
- IC50 [1]: 280 µM
- change in vivo at 1.2 mg/kg [2, 4]: -9%
- change in vivo at 1.2 mg/kg [2, 10]: 3%
- change in vivo at 1.2 mg/kg [2, 11]: 1%
- change in vivo at 1.2 mg/kg [2, 12]: 12%

— patent publication US4843077A, “Isoquinoline derivatives having renal vasodilating properties and/or cardiotonic properties and/or phosphodiesterase inhibiting properties” (Ortho Pharmaceutical Corporation, priority 1987, dated 1989)
